Tests used:
[1] = Elution of DAA-I from stents coated with increasing amounts of TEOS; assay type: physicochemical; conditions: 0.1-0.5M TEOS with constant DAA-I 1.25 mg/mL; effect of increasing TEOS to drug molar ratio; 9 mm stents; FIGS. 5A-5B
Procedure: To explore the effects of increasing the amount of TEOS on the rate of elution of DAA-I, increasing amounts, from 0.1-0.5M of TEOS were added to a constant amount of DAA-I (1.25 mg/mL) according to the methods and protocols described above. The stents (9 mm, n=4) were sprayed with each of the solutions as described above, weighed, and the amounts DAA-I eluted over a 24 hour period were compared.

[2] = pH 5
Procedure: Referring to FIG. 4, elution of DAA-I from the TEOS coated stents was measured by analyzing the amount of DAA-I found in 0.1% solutol in ammonium acetate buffer, pH 5.0, as a function of time, when the stents were incubated in this medium at 37° C. The amount of DAA-I was determined by integrating the DAA-I peak in high performance liquid chromatography (HPLC) profiles using a Altima C-8 column (Altech, Chicago Ill.) and comparison to standard curves.

## des-aspartate angiotensin I [DAA-I]
[1]
  rate of release of the drug into aqueous solution: significantly delayed the rate of release
[2]
  rate of DAA-I elution: slow the rate of DAA-I elution

From patent publication US8097269B2, “Bioactive material delivery systems comprising sol-gel compositions” (Celonova Biosciences, Inc., priority 2004, dated 2012)
